Literature values as cited in US20190328772A1, “OPHTHALMIC COMPOSITIONS COMPRISING A CYCLODEXTRIN AS SOLE ACTIVE AGENT” (priority 2016, published 2019).
Where two headings read alike, the source gives them in different places.

Legend:
drusen = details: 37° C., 24 hours
mouse brown fat tissue = details: concentrations of 25-40%, 24 hours
[1] = tested on: corneal epithelium of rabbits

CC(O)COC[C@H]1O[C@@H]2O[C@H]3[C@H](O)[C@@H](O)[C@@H](O[C@H]4[C@H](O)[C@@H](O)[C@@H](O[C@H]5[C@H](O)[C@@H](O)[C@@H](O[C@H]6[C@H](O)[C@@H](O)[C@@H](O[C@H]7[C@H](O)[C@@H](O)[C@@H](O[C@H]8[C@H](O)[C@@H](O)[C@@H](O[C@H]1[C@H](O)[C@H]2O)O[C@@H]8COCC(C)O)O[C@@H]7COCC(C)O)O[C@@H]6COCC(C)O)O[C@@H]5COCC(C)O)O[C@@H]4COCC(C)O)O[C@@H]3COCC(C)O (stereo partly drawn) [HP-β-CD, Hydroxypropyl-β-cyclodextrin]
dissolving the lipid component in drusen (drusen; 40 ml of 25%, sections of a cut up human eye): efficacy in dissolving the lipid component in drusen | change of drusen by H&E staining (drusen; 40 ml of different concentrations, eye sections): no change | removal of mouse brown fat tissue (mouse brown fat tissue): able to partially remove mouse brown fat tissue | toxicity or irritation in rabbit eyes ([1]; rabbit, in vivo): not to be toxic or irritating

randomly methylated β-CD [RM-β-CD]
toxicity to the corneal epithelium of rabbits ([1]; concentration 5%): can be toxic

β-Cyclodextrin sulfobutyl ether [SBE-β-CD]
toxicity or irritation in rabbit eyes ([1]; solution of 10%): not to be toxic or irritating
